Test results: patent publication US20070225303A1, “8-Oxoadenine Compound” (priority 2004, published 2007)

Legend:
spleen cells = experiment: cells; assay type: cell-based; conditions: 24 h, read-out: Minimum effective concentration (interferon inducing activity), CD(SD)IGS rat spleen cells, 24 hours incubation; interferon in supernatant by L929/vesicular stomatitis virus bioassay
[1] = Metabolic stability test using human plasma; assay type: in vitro ADME; conditions: 1 μM test compound, 37° C. for 15 minutes, residual amount per pre-metabolization concentration as 100%
Protocol: Plasma was prepared from fresh human blood and the test compound (containing 1% DMSO) of the final concentration of 1 μM was added thereto.
After a metabolic reaction by plasma esterase was conducted at 37° C. for 15 minutes, the test compound was extracted with ethyl acetate, and quantitatively analyzed by reverse phase HPLC. The metabolic stability of the test compound was shown by the residual amount (%) per the concentration of pre-metabolization as 100%.

[2] = Metabolic stability test on rat liver S9; assay type: in vitro ADME; conditions: rat liver S9 with NADPH, 1 μM test compound, 37° C.; residual rate after reaction, LC/MS
Protocol: The reaction using liver S9 of rat was conducted on a 96-well plate by using a screening robot by Tecan Company. S9 solution was prepared by adding 250 mM Kpi (pH 7.4) 20 ml and deionized water 20 ml to 10 ml of liver S9 of rat, a Cofactor solution was prepared by dissolving NADPH 220 mg in deionized water 40.5 ml (Final 6 mM), and IS (Internal Standard) solution was prepared by adding IS solution (1 mM DMSO solution) 300 μl to acetonitrile 30 ml (100 times dilution). The test compound (1 μM DMSO solution) was dissolved in an incubator at 37° C. After each 35 μL was poured in a 96-well plate (24 samples/plate), plates (sample plates, 96-well plates for dilution, each Deep well plates for the reaction and the recovery, plates for extraction of a solid phase) and reagents (S9 solution, Cofactor solution, IS (Internal Standard) solution, Stop solution, acetonitrile for elution) were set to the specified position in the booth of the robot, and the reaction started (the concentration of the test compounds was 1 μM). Incubation was conducted under shaking at 37° C., the solid phase was extracted (at the same time, the internal standard for analysis was added). To the recovered samples 200 μL/well was added 50 μL of acetonitrile per each well, and to 2 plates of FALCON Deep well were poured 100 μL/well of the solution per well. By subjecting to the LC/MS analysis, the chromatography of the test compound and the internal standard were described and the peak area was calculated. And then, the stability (residual rate after reaction) was calculated.

SMILES | minimal effective concentration (spleen cells) | Residual rate [1] | Residual rate [2]
Nc1nc(SCCCO)nc2c1nc(O)n2Cc1cccc(CC(=O)O)c1 [Comparative example 1, 9-(3-Carboxymethylbenzyl)-8-hydroxy-2-(3-hydroxypropylthio)adenine, reference compound] | > 1 µM | – | –
Nc1nc(SCCCCO)nc2c1nc(O)n2Cc1cccc(CC(=O)O)c1 [Comparative example 2, 9-(3-Carboxymethylbenzyl)-8-hydroxy-2-(4-hydroxybutylthio)adenine, reference compound] | 1 µM | – | –
COC(=O)Cc1cccc(Cn2c(O)nc3c(N)nc(SCCCO)nc32)c1 [Example 1, 8-Hydroxy-2-(3-hydroxypropylthio)-9-(3-methoxycarbonylmethylbenzyl)adenine] | 0.01 µM | <1% | –
COC(=O)Cc1cccc(Cn2c(O)nc3c(N)nc(SCCCCO)nc32)c1 [Example 2, 8-Hydroxy-2-(4-hydroxybutylthio)-9-(3-methoxycarbonylmethylbenzyl)adenine] | 0.01 µM | <1% | –
COC(=O)Cc1cccc(Cn2c(O)nc3c(N)nc(OCCCO)nc32)c1 [Example 4, 8-Hydroxy-2-(3-hydroxypropoxy)-9-(3-methoxycarbonylmethylbenzyl)adenine] | 0.03 µM | 3.2% | 8%
COC(=O)Cc1cccc(Cn2c(O)nc3c(N)nc(OCCO)nc32)c1 [Example 5, 8-Hydroxy-2-(2-hydroxyethoxy)-9-(3-methoxycarbonylmethylbenzyl)adenine] | 0.1 µM | 5.8% | –
CCCCOc1nc(N)c2nc(O)n(CCc3cccc(CC(=O)OC)c3)c2n1 [Example 9, 2-Butoxy-8-hydroxy-9-[2-(3-methoxycarbonylmethylphenyl)ethyl]adenine] | 0.03 µM | 7.9% | 0%
CCCCOc1nc(N)c2nc(O)n(CCCc3cccc(CC(=O)OC)c3)c2n1 [Example 10, 2-Butoxy-8-hydroxy-9-[3-(3-methoxycarbonylmethylphenyl)propyl]adenine] | 0.01 µM | <1% | 1%
COC(=O)Cc1cccc(Cn2c(O)nc3c(N)nc(OCC(O)CO)nc32)c1 (stereo not shown) [Example 11, 2-(2,3-Dihydroxy-1-propoxy)-8-hydroxy-9-(3-methoxycarbonylmethylbenzyl)adenine] | – | 20.9% | –
CCOCCOc1nc(N)c2nc(O)n(Cc3cccc(CC(=O)OC)c3)c2n1 [Example 12, 2-(2-Ethoxyethoxy)-8-hydroxy-9-(3-methoxycarbonylmethylbenzyl)adenine] | – | – | 0%
COC(=O)Cc1cccc(Cn2c(O)nc3c(N)nc(OCC4CCCCC4)nc32)c1 [Example 13, 2-Cyclohexylmethoxy-8-hydroxy-9-(3-methoxycarbonylmethylbenzyl)adenine] | – | – | 11%
COC(=O)CCc1nc(N)c2nc(O)n(Cc3cccc(CC(=O)OC)c3)c2n1 [Example 15, 8-Hydroxy-2-(2-methoxycarbonylethyl)-9-(3-methoxycarbonylmethylbenzyl)adenine] | – | – | 0%
CCCCOc1nc(N)c2nc(O)n(Cc3ccc(CC(=O)OC)s3)c2n1 [Example 16, 2-Butoxy-8-hydroxy-9-{(5-methoxycarbonylmethyl-2-thienyl)methyl}adenine] | – | – | 0%
CCCCOc1nc(N)c2nc(O)n(Cc3cccc(CC(=O)OC)n3)c2n1 [Example 18, 2-Butoxy-8-hydroxy-9-{(6-methoxycarbonylmethyl-2-pyridyl)methyl}adenine] | – | – | 0%
CCCCOc1nc(N)c2nc(O)n(Cc3cc(CC(=O)OC)ccn3)c2n1 [Example 19, 2-Butoxy-8-hydroxy-9-{(4-methoxycarbonylmethyl-2-pyridyl)methyl}adenine] | – | – | 0%
CCCCOc1nc(N)c2[nH]c(=O)n(Cc3cc(CC(=O)OC)ccc3OC)c2n1 [Example 20, 2-Butoxy-8-hydroxy-9-[(2-methoxy-5-methoxycarbonylmethyl)benzyl]adenine] | – | – | 0%
CCCCOc1nc(N)c2[nH]c(=O)n(Cc3ccc(F)c(CC(=O)OC)c3)c2n1 [Example 21, 2-Butoxy-9-[(4-fluoro-3-methoxycarbonylmethyl)benzyl]-8-hydroxyadenine] | – | – | 1%
CCCCOc1nc(N)c2[nH]c(=O)n(Cc3ccc(OC)c(CC(=O)OC)c3)c2n1 [Example 22, 2-Butoxy-8-hydroxy-9-[(4-methoxy-3-methoxycarbonylmethyl)benzyl]adenine] | – | – | 2%
Nc1nc(OCCCO)nc2c1nc(O)n2Cc1cccc(CC(=O)O)c1 [compound 4, 9-(3-Carboxymethylbenzyl)-8-hydroxy-2-(3-hydroxypropoxy)adenine, reference compound] | > 1 µM | – | –
Nc1nc(OCCO)nc2c1nc(O)n2Cc1cccc(CC(=O)O)c1 [compound 5, 9-(3-Carboxymethylbenzyl)-8-hydroxy-2-(2-hydroxyethoxy)adenine, reference compound] | > 1 µM | – | –
CCCCOc1nc(N)c2nc(O)n(CCc3cccc(CC(=O)O)c3)c2n1 [compound 9, 2-Butoxy-9-[2-(3-carboxymethylphenyl)ethyl]-8-hydroxyadenine, reference compound] | 0.3 µM | – | –
CCCCOc1nc(N)c2nc(O)n(CCCc3cccc(CC(=O)O)c3)c2n1 [compound 10, 2-Butoxy-9-[3-(3-carboxymethylphenyl)propyl]-8-hydroxyadenine, reference compound] | 0.1 µM | – | –
